According to US20250213547A1, “METHODS OF TREATING NEUROLOGICAL DISEASES” (priority 2022, published 2025):
≈ marks a conversion by molar mass, not a printed value.

Assays:
[1] = Multiple rising dose study: safety (TEAEs) in healthy subjects over 14 days; assay type: in vivo, human
Protocol: Subjects were monitored during the study and a full review was conducted after each rising dose. Safety data monitoring included vitals, physical and visual examinations, electrocardiogram, BMI, and clinical laboratory tests. […] Percentages are rounded to one decimal place. A subject with two or more different adverse events (AE) within the same levels of the MedDRA term and treatment is counted only once at that level using the most related or severe incident. A TEAE is defined as an AE or SAE that occurs or gets worse after receiving the first dose of study drug and within 30 days after the last dose of study drug.

[2] = clinical; conditions: human, in vivo; for AUC: AUC24 / mean steady-state area under the curve
Protocol: Soticlestat was administered in tablet formulation during fasting condition. […] Blood samples were obtained before the first morning dose, and at 1, 3, and 5 hours post-dose. On days 11 and 21, blood samples were taken before the morning dose and 1 hour post-dose. In Part B, patients were administered 200 mg BID for days 31-40, followed by 300 mg BID for days 41-85. On days 31, 41, and 85, blood samples were taken before the morning dose. […] The AUC24 for doses 100, 200, and 300 mg BID were 562.5, 1437, and 2188 ng×h/mL, respectively.
Blood samples were collected before and after the morning dose on days 1, 11, and 21, and before and after the morning dose on days 31, 41, and 85.

[3] = target: T1, CH24H (Homo sapiens, UniProt Q9Y6A2); assay: PK/PD (PK/OE/24HC) turnover modeling; conditions: for BL / IC50 / IGAM / Imax / KOUT: ELEKTRA subjects; for BL: 24HC baseline
T1 construct: from tissue; host or cells: brain of living human trial subjects (in vivo)
T1 sequence (Q9Y6A2 whole entry): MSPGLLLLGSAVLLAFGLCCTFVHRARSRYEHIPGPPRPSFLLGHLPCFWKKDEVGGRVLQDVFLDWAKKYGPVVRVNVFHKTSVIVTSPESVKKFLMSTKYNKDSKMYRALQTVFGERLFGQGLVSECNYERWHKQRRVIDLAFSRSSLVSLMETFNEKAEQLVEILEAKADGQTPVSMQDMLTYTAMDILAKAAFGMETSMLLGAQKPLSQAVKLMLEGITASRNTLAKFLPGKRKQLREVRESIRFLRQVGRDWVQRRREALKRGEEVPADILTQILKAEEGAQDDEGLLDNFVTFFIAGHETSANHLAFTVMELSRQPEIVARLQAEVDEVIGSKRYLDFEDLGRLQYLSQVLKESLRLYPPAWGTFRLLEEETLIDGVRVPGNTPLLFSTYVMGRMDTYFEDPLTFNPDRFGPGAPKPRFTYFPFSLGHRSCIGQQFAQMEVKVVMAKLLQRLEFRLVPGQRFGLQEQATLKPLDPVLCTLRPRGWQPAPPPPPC
Description: Similar to the PK model, the PK/PD model was developed as a population mixed-effects model and incorporated the individual PK parameters from the final PK population model. A turnover model was used to characterize changes in plasma 24HC overtime. Plasma 24HC was considered to be at steady-state baseline (BL) before the start of treatment. […] PK/PD covariates were screened in a procedure similar to the PK covariates. In the final PK/PD model, two covariates, A1-AGLP and body weight affected baseline 24HC.
The PK/PD analysis dataset consisted of 2165 24HC observations from 3 phase I trials. Four subjects from the ELEKTRA study with large IC50 estimates were excluded from the dataset. Additionally, 42 individuals with large conditional weighted residuals were excluded from the dataset. The final dataset contained 2107 24HC observations from 248 subjects. Table 26 summarizes the modeling dataset with reference to example numbers, respective clinical trial ID, subject numbers, regimen, and number of observations and doses. Tables 27 and 28 summarize the categorical covariates used in PK/OE/24HC analysis from the entire dataset and the ELEKTRA study subset, respectively.
Tables 29 and 30 summarize the mean continuous variables used in the PK/OE/24HC covariate analysis from the entire PK/OE/24HC population studied and the ELEKTRA subset, respectively. In addition to the shared variables, the PK/PD dataset contained the individual final estimates of the population PK model parameters (IND_ALAG1, IND_KA, IND_CL, IND_V2, IND_Q, IND_V3, and IND_F1). Subjects without individual PK parameter estimates (e.g. subjects from the placebo arms) were assigned to the respective geometric mean of the estimated individual parameter values.
A turnover model was used to describe changes in 24HC concentration over time. […] The following formula estimates change in 24HC: […]
The indirect exposure effect (EFF) was estimated by an Imax model:
The effect-site concentration was implemented as a delayed equilibrium with the plasma/brain transit rate parameter (KPLBR):
The scaling parameter KPLBR was previously estimated in a competitive enzyme occupancy model derived from PET brain imaging data (NCT02497235, Table 19). Parameters derived from this base model were fixed at their previous final PK population estimates derived from example 12. However, no random effects could be estimated without enzyme occupancy data. FIG. 26 depicts the basic model structure in relation to observed and unobserved data. There was a strong growth-related increase in baseline 24HC levels, which was only observed in young subjects.
The following variables were screened by forward inclusion, backward exclusion F-tests: • Growth/maturity: Weight, BMI, and age • Protein binding: Albumin (ALB), A1-AGLP • Liver function: AST, ALT, GGT, and ALP • Kidney function: Creatinine clearance (CRCL), eGFR • Categorical variables: Asian, sex. Ethnicity, and disease type

[4] = Healthy Japanese subjects: safety and tolerability; assay type: in vivo, human
Description: Primary Objective: To evaluate the safety and tolerability of TAK-935 in healthy Japanese subjects when administered as single oral dose or multiple oral doses with titration. Secondary Objective: To evaluate the PK of TAK-935 in healthy Japanese subjects when administered as single oral dose or multiple oral doses with titration.
This study consisted of 2 parts, and was a randomized, double-blind, placebo-controlled study to assess safety, tolerability, and PK and PD of TAK-935 when administered orally in healthy Japanese subjects.
The primary endpoint of the study included: Safety endpoint: Percentage of subjects who experience at least 1 TEAE Secondary endpoints included:
• Laboratory tests. • Vital signs. • ECG parameters.

[5] = multiple doses 100-300 mg BID, TAK-935 group

In the case of O=C(c1cccnc1-c1ccncc1)N1CCC(O)(Cc2ccccc2)CC1 [soticlestat], the “Deaths, number of subjects (%)” value ([1]; 100 mg QD, n = 6) was 0 subjects (%), the “Deaths, number of subjects (%)” value ([1]; 300 mg BID, n = 6) was 0 subjects (%) and the “Deaths, number of subjects (%)” value ([1]; 300 mg QD, n = 6) was 0 subjects (%). For the same compound, the “Deaths, number of subjects (%)” value ([1]; 400 mg QD, n = 6) was 0 subjects (%), the “Mild TEAEs, number of subjects (%)” value ([1]; 400 mg QD, n = 6) was 4 (66.7) subjects (%) and the “Related TEAEs, number of subjects (%)” value ([1]; 400 mg QD, n = 6) was 4 (66.7) subjects (%). For the same compound, the “Deaths, number of subjects (%)” value ([1]; 600 mg QD, n = 6) was 0 subjects (%), the “Mild TEAEs, number of subjects” value ([1]; both, human, in vivo, 14 days) was 12 subjects and the “Moderate TEAEs, number of subjects” value ([1]; both, human, in vivo, 14 days) was 1 subjects. For the same compound, the “TEAEs mild and transient” value ([1]; both, human, in vivo, 14 days) was 91%, the “TEAEs, number of subjects” value ([1]; both, human, in vivo, 14 days) was 14 subjects and the “number of TEAEs reported” value ([1]; human, in vivo) was “Forty-five”. For the same compound, the “Not related TEAEs, number of subjects” value ([1]; human, in vivo, 14 days) was 1 subjects, the “Related TEAEs, number of subjects” value ([1]; human, in vivo, 14 days) was 13 subjects and the “SAEs, number of subjects” value ([1]; human, in vivo, 14 days) was 0 subjects. For the same compound, the “Severe TEAEs, number of subjects” value ([1]; human, in vivo, 14 days) was 1 subjects, the “TEAEs leading to halt, number of subjects” value ([1]; human, in vivo, 14 days) was 2 subjects and the “Deaths, number of subjects” value ([1]; soticlestat total, n = 30) was 0 subjects. It also gave a clearance ([2]; 100 mg) of 4320 mL/min, an AUC ([2]; 100 mg) of 562 ng·h/mL and a Cmax ([2]; 100 mg, Cmax steady state, mean) of 270 ng/mL. The clearance ([2]; 200 mg) was 3260 mL/min, the AUC ([2]; 200 mg) was 1440 ng·h/mL and the Cmax ([2]; 200 mg, Cmax steady state, mean) was 640 ng/mL. For the same compound, the clearance ([2]; 300 mg) was 3170 mL/min, the AUC ([2]; 300 mg) was 2190 ng·h/mL and the Cmax ([2]; 300 mg, Cmax steady state, mean) was 975 ng/mL. The Cmax ([2]; Study TAK-935-2001, 200 mg BID, Mean, read-out: Cmax, ss) was 1270 ng/mL, the KOUT typical value ([3]; 24HC elimination rate) was 0.0215 h⁻¹ and the BL ([3]; Mean) was 96.4 ng/mL. For the same compound, the BL ([3]; Median) was 84.775 ng/mL, the BL ([3]; Range) was 31.63 to 303.45 ng/mL and the IC50 ([3]; Mean) was 0.0128 µg/mL (≈ 0.0343 µM). The IGAM ([3]; Mean) was 0.83, the Imax ([3]; Mean) was 93.5% and the KOUT ([3]; Mean) was 0.022 h⁻¹. For the same compound, the IC50 ([3]; Median) was 0.01006 µg/mL (≈ 0.0269 µM), the IGAM ([3]; Median) was 0.83 and the Imax ([3]; Median) was 93.5%. For the same compound, the KOUT ([3]; Median) was 0.022 h⁻¹, the IC50 ([3]; Range) was 0.00217 to 0.076 µg/mL and the IGAM ([3]; Range) was 0.83-0.83. For the same compound, the Imax ([3]; Range) was 93.5-93.5%, the KOUT ([3]; Range) was 0.022-0.022 1/h and the “maximum inhibition of 24HC synthesis (Imax), typical value” ([3]; PK/PD turnover model) was 93%. The “IC50 for 24HC, typical value” ([3]; PK/PD turnover model, soticlestat concentration) was 0.0101 µg/mL, the “24HC Baseline (BL): age cut-off” value ([3]; covariate on BL) was 21.2 y and the “24HC Baseline (BL) typical value” ([3]; final PK/OE/24HC model) was 50.5 ng/mL. For the same compound, the “Enzyme Occupancy: KPLBR plasma-brain rate” value ([3]; final PK/OE/24HC model, fixed) was 0.254 h⁻¹, the “plasma/brain scaling parameter KPLBR (fixed)” value ([3]; from PET enzyme occupancy model) was 0.254 h⁻¹ and the Imax typical value ([3]; maximum inhibition of 24HC) was 93.5%. For the same compound, the “deaths, SAEs, TEAEs leading to discontinuation” value ([4]; healthy Japanese subjects) was “No deaths, SAEs, or TEAEs leading to study drug discontinuation”, the “intensity of TEAEs” value ([4]; healthy Japanese subjects) was “All of the TEAEs were mild” and the “subjects who experienced TEAEs” value [4, 5] was 5 subjects. For the same compound, the “subjects with drug-related TEAEs” value [4, 5] was 3 subjects and the tolerability ([4]; single dose up to 1200 mg and multiple doses 100 to 300 mg BID) was “well tolerated”.
